Entries after “also recorded” stand apart in the source; their conditions may differ.
How the values were obtained:
[1] = tested on: c-fos-GFP expression in the mouse brain; test: Haloperidol dose-response c-fos-GFP pharmacomaps (Example 10); format: in vivo
Description: For example, before injection, male mice (8 weeks old) are single-housed for five days in order to limit the variability of the baseline c-fos-GFP expression.
For example, the datasets are represented as the number of centroids (c-fos-GFP cells) lying within an evenly spaced grid of 450×650×300 elements (voxels), each of size 20×20×50 microns.
Drugs have different effects and side effects at different dosages.

[2] = tested on: c-fos-GFP expression in the mouse brain; test: c-fos-GFP pharmacomaps of three antipsychotics at a moderate dosage (Example 9); conditions: 5 mouse brains per drug
[3] = tested on: c-fos-GFP expression in the whole mouse brain; test: c-fos-GFP pharmacomap by STP tomography, haloperidol vs saline (Example 5); format: in vivo; conditions: 3 hours
Description: This example analyzes the effects of antipsychotic drugs on neural circuit activity in the whole mouse brain. The method comprises the following steps: (1) an automated whole-brain microscopy, STP tomography, was used to image brains of c-fos-GFP mice, which express GFP as a marker for native c-fos; (2) the distribution of the activated c-fos-GFP-positive neurons was computationally detected by convolutional neural networks; (3) the processed datasets were warped and registered in a 3D reference brain and voxelized for statistical comparisons.
Transgenic c-fos-GFP mice (Reijmers et al., Science 317:1230-1233 (2007)), expressing GFP as a surrogate marker for native c-fos, was injected with intraperitoneally with haloperidol (1 mg/kg) or saline (control). The mice were returned to their home cage and left undisturbed for 3 hours, a time period needed for the induction and fluorophore maturation of c-fos-GFP. Next, the mice were deeply anesthetized and euthanized by intra-cardiac perfusion with saline and paraformaldehyde for brain fixation. The mice were decapitated and the brain was extracted, postfixed and embedded in agar for STP tomography. Three PMTs (C1-C3) can be used for multi-color imaging. […]

[4] = tested on: c-fos-GFP expression in the transgenic c-fos-GFP mouse brain; test: c-fos-GFP induction in transgenic c-fos-GFP mouse brain, whole-mount two-photon microscopy (Example 3); format: in vivo; conditions: three hours, vs saline, one animal per treatment
Description: High-throughput whole-brain imaging of an immediate early gene (IEG) induction was used in transgenic “indicator” mice that express GFP from specific IEG promoters, such as c-fos and Arc promoters in c-fos-GFP and Arc-GFP transgenic mice ((Barth et al., J Neurosci 24, 6466-6475 (2004); Grinevich et al., Journal of Neuroscience Methods 184, 25-36 (2009)). In these mice, GFP represents a readily detectable surrogate for the expression of the native gene.
Whole-mount two-photon microscopy was used for automated mouse brain imaging. The instrument works as follows: First, a fixed mouse brain embedded in an agar block is placed in a water bath on top of a computer controlled x-y-z stage. The stage moves the brain under the objective, so that the top is imaged as a mosaic of individual fields of view (“tiles”). […]
To validate the entire pipeline of data processing, the trained neural networks were applied to extract c-fos-GFP signal in brains of two mice, one injected with saline and the other with haloperidol at 1 mg/kg (FIG. 27). Three hours later, the mice were euthanized, their brains imaged by whole-mount two-photon microscopy, and c-fos-GFP-positive cells were computationally detected and visualized as a three-dimensional representation of intensity centroids (FIG. 17).

[5] = haloperidol 0.25, risperidone 1.0, aripiprazole 1.0 mg/kg, vs saline-injected control

O=C(CCCN1CCC(O)(c2ccc(Cl)cc2)CC1)c1ccc(F)cc1 [haloperidol]
brain regions activated (pharmacomap A) ([1]; 0.05 mg/kg (low)): activated dorsomedial hypothalamus (HYP), ACB, and CP
brain regions activated (pharmacomap B) ([1]; 0.25 mg/kg (medium)): activated the same structures as shown in pharmacomap A, plus OT, LS and PL
brain regions activated (pharmacomap C) ([1]; 1.0 mg/kg (high)): more widespread activation, including, in addition, prelimbic (PL), infralimbic (IL), and lateral entorhinal (ENT) areas, BST, central amygdala (CEA) and PVT
numbers of activated areas across dosages ([1]; 0.05, 0.25 and 1.0 mg/kg): increasing numbers of activated areas observed with increasing dosage
strength of c-Fos induction within commonly activated regions (caudate putamen and nucleus accumbens) ([1]; 0.05, 0.25 and 1.0 mg/kg, data not shown): significantly increased with increasing dosage
brain regions activated (pharmacomap) ([2]; haloperidol 0.25 mg/kg, risperidone 1.0 mg/kg, aripiprazole 1.0 mg/kg, vs saline): activated a major portion of the caudate putamen (CP) and nucleus accumbens (ACB), as well as the olfactory tubercle (OT), prelimbic cortex (PL), lateral septum (LS) and dorsomedial hypothalamus (HYP)
c-fos-GFP activation, Anterior cingulate cortex (ACAd) [2, 5]: up
c-fos-GFP activation, Anterior cingulate cortex (ACAv) [2, 5]: 0
c-fos-GFP activation, Basal, Central, Cortic. Amydgala (AMG) [2, 5]: 0
c-fos-GFP activation, Bed nucleus of Stria Terminalis (BST) [2, 5]: 0
c-fos-GFP activation, Caudate-putamen (CP, dorso-medial) [2, 5]: up
c-fos-GFP activation, Caudate-putamen (CP, ventro-medial) [2, 5]: up
c-fos-GFP activation, Caudoputamen (CP, dorsolateral) [2, 5]: up
c-fos-GFP activation, Caudoputamen (CP, ventrolateral) [2, 5]: up
c-fos-GFP activation, Central medial thalamic nucleus [2, 5]: 0
c-fos-GFP activation, Claustrum (CLA) [2, 5]: 0
c-fos-GFP activation, Dorsomedial hypoth. (HYP) [2, 5]: up
c-fos-GFP activation, Gostatory Cx (GU) [2, 5]: 0
c-fos-GFP activation, Hippocampus: CA1, CA2, CA3 (HF) [2, 5]: 0
c-fos-GFP activation, Hippocampus: DG [2, 5]: 0
c-fos-GFP activation, Hypothalamus, ventromedial nuclei [2, 5]: 0
c-fos-GFP activation, Infralimbic cortex (IL) [2, 5]: up
c-fos-GFP activation, Insular area, agranular [2, 5]: 0
c-fos-GFP activation, Lateral Septum (LS) [2, 5]: up
c-fos-GFP activation, Lateral Spetal Nucl, dorsal part [2, 5]: 0
c-fos-GFP activation, Midline Thalamus (Nucl Reuniens, RE) [2, 5]: 0
c-fos-GFP activation, Midline Thalamus (PVT) [2, 5]: 0
c-fos-GFP activation, Motor area, primary (MOp) [2, 5]: 0
c-fos-GFP activation, Motor area, secondary (MOs) [2, 5]: 0
c-fos-GFP activation, Nucleus Accumbens (ACB), core [2, 5]: up
c-fos-GFP activation, Nucleus Accumbens (ACB), shell [2, 5]: up
c-fos-GFP activation, Nucleus Accumbens (ACB), whole [2, 5]: up
c-fos-GFP activation, Olfactory tubercle (OT) [2, 5]: up
c-fos-GFP activation, Orbital cortex ventral (VO) [2, 5]: 0
c-fos-GFP activation, Orbital cx (ORB), lateral [2, 5]: 0
c-fos-GFP activation, Orbital cx (ORB), medial [2, 5]: up
c-fos-GFP activation, Piriform cx (PIR) [2, 5]: 0
c-fos-GFP activation, Prelimbic cx (PL) [2, 5]: up
c-fos-GFP activation, RSPd, v, d and agl [2, 5]: 0
c-fos-GFP activation, Red nucleus (RN) [2, 5]: 0
c-fos-GFP activation, Somatosensory cx, primary [2, 5]: 0
c-fos-GFP activation, Striatum, ventro-lateral [2, 5]: 0
c-fos-GFP activation, Superior Colliculus (SC) [2, 5]: 0
c-fos-GFP activation, Temporal cortex [2, 5]: 0
c-fos-GFP activation, Ventromedial Thalamus (caudally) [2, 5]: 0
c-fos-GFP activation, Zona Inserta [2, 5]: 0
previously identified brain regions detected as statistically different vs saline ([3]; 1 mg/kg i.p., n=7 vs saline n=7, negative binomial regressions, FDR 0.01): Medial prefrontal Cx, Cingulate Cx, Piriform Cx, Major Islands of Calleja, Nc Accumbens (whole, shell, core), Lateral septum, Striatum (whole), Medial preoptic area, Paraventricular nucleus, Bed nucleus of stria terminalis, Medial thalamus
number of c-fos-GFP cells in the brain (c-fos-GFP pharmacomap) ([3]; 1 mg/kg intraperitoneally, saline brain 176,771): 545,838 c-fos-GFP cells
c-fos-GFP-positive cells per coronal section, caudal sections ([4]; 1 mg/kg, preliminary quantitation): increased numbers of c-fos-GFP-positive cells in many caudal coronal sections; also recorded: broad distribution of haloperidol-evoked c-fos-GFP induction in the caudal sections
brain regions with c-fos-GFP induction ([4]; i.p. 1 mg/kg): expected induction of c-fos-GFP in the striatum and lateral septum; also recorded: expected strong induction of c-fos-GFP in the caudate putamen; also recorded: Strong labeling is induced in striatum (A) and lateral septum (B)

— US20140297199A1, “DRUG SCREENING METHOD AND USES THEREOF” (COLD SPRING HARBOR LABORATORY, priority 2011, published 2014)
